Test results published in the supplement of paper PMC10307832.

Tests used:
Assay in all cases: relative viability (nuclei count vs DMSO), 5 days (fraction); higher = more cells survive
[1] = compound: C1=CC2=C(C=C(C(=C2N=C1)O)N=NC3=CC4=C(C=C3)C=C(C=C4)S(=O)(=O)O)S(=O)(=O)O + CS(=O)(=O)CCNCc1ccc(-c2ccc3ncnc(Nc4ccc(OCc5cccc(F)c5)c(Cl)c4)c3c2)o1 [Lapatinib] (partner 2 µM)
Outline: (§1)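 After 5 days of treatment, lung cancer cells in 1536-well plates were fixed and stained in a single step (final 0.05% Triton X-100, 1% formaldehyde, 1 ug/ml Hoechst) and their nuclei counted on 4× images. Treatment had been applied by pin tool the day after seeding as one drug alone or as a fixed anchor-drug dose with five library-drug doses (not always all listed) in √10 steps. Relative viability is the nuclei count of treated wells divided by that of vehicle wells, and values are medians of duplicate plates.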

[2] = compound: O=C(NC1CCNCC1)c1n[nH]cc1NC(=O)c1c(Cl)cccc1Cl [AT-7519] + Cc1cc(Nc2cc(N3CCN(C)CC3)nc(Sc3ccc(NC(=O)C4CC4)cc3)n2)n[nH]1 [Tozasertib] (partner 0.1 µM)
Outline: as §1

[3] = compound: O=C(NC1CCNCC1)c1n[nH]cc1NC(=O)c1c(Cl)cccc1Cl [AT-7519] + Cc1nc(NC(=O)N2CCC[C@H]2C(N)=O)sc1-c1ccnc(C(C)(C)C(F)(F)F)c1 [Alpelisib] (partner 2 µM)
Outline: as §1

[4] = compound: O=C(NC1CCNCC1)c1n[nH]cc1NC(=O)c1c(Cl)cccc1Cl [AT-7519] + O=C(c1cc(Cc2n[nH]c(=O)c3ccccc23)ccc1F)N1CCN(C(=O)C2CC2)CC1 [Olaparib] (partner 8 µM)
Outline: as §1

Cell Line	relative viability ([1]; first compound 0.08 µM)	relative viability ([1]; first compound 0.253 µM)	relative viability ([1]; first compound 0.8 µM)	relative viability ([1]; first compound 2.53 µM)	relative viability ([1]; first compound 8 µM)	relative viability ([2]; first compound 0.01 µM)	relative viability ([2]; first compound 0.03162 µM)	relative viability ([2]; first compound 0.3162 µM)	relative viability ([2]; first compound 1 µM)	relative viability ([3]; first compound 0.01 µM)	relative viability ([3]; first compound 0.03162 µM)	relative viability ([3]; first compound 0.3162 µM)	relative viability ([3]; first compound 1 µM)	relative viability ([4]; first compound 0.01 µM)	relative viability ([4]; first compound 0.03162 µM)	relative viability ([4]; first compound 0.3162 µM)	relative viability ([4]; first compound 1 µM)
LOU-NH91	0.868	0.79	0.755	0.781	0.781	0.722	0.679	0.676	0.57	0.768	0.703	0.729	0.579	0.911	0.899	0.931	0.785
LU99A	0.934	0.974	0.949	0.972	1.14	0.26	0.276	0.297	0.218	0.612	0.435	0.478	0.42	0.278	0.247	0.228	0.229
LXF-289	0.934	0.889	0.897	0.955	0.903	0.159	0.184	0.195	0.178	1.03	1.07	1.08	0.921	1.09	1.15	1.02	1.06
NCI-H23	1.31	1.02	1.03	0.984	1.18	0.332	0.361	0.337	0.395	0.561	0.785	0.68	0.45	0.368	0.265	0.327	0.173
NCI-H322M	0.627	0.639	0.528	0.613	0.716	0.493	0.497	0.361	0.196	0.823	0.725	0.721	0.824	0.746	0.739	0.249	0.643
NCI-H358	0.436	0.393	0.469	0.486	0.483	0.111	0.116	0.0818	0.0852	0.948	0.712	0.431	0.179	0.608	0.48	0.36	0.11
NCI-H460	1.53	1.01	1.05	1.13	0.965	0.699	0.473	0.462	0.193	0.667	0.526	0.322	0.0207	0.367	0.456	0.315	0.18
NCI-H520	1.1	0.791	0.833	0.798	0.848	0.438	0.453	0.399	0.385	0.81	0.847	0.884	0.478	0.341	0.315	0.287	0.201
NCI-H596	1.11	1.02	0.977	1.01	1.01	0.78	0.811	1	0.849	0.485	0.548	0.191	0.41	0.64	0.733	0.691	0.644
NCI-H647	1.64	0.828	0.974	0.998	0.904	0.44	0.218	0.22	0.227	1.13	1.07	0.967	0.53	0.355	0.55	0.482	0.189
NCI-H650	0.91	0.786	0.838	0.86	0.525	0.784	0.646	0.716	0.675	1.09	1	1.09	1.08	0.413	0.384	0.439	0.349
NCI-H661	0.541	0.49	0.431	0.626	0.49	0.378	0.352	0.392	0.314	0.488	0.445	0.758	0.506	0.775	0.834	0.762	0.251
NCI-H727	1.09	0.873	0.768	0.978	0.701	0.574	0.551	0.519	0.367	0.649	0.486	0.546	0.226	0.711	0.772	0.7	0.365
NCI-H838	1.29	0.926	0.934	0.926	1.06	0.315	0.277	0.291	0.187	1.05	0.972	0.966	0.141	0.812	0.766	0.576	0.0987
NCI-H1355	1.02	0.999	0.905	1.05	1.08	0.566	0.535	0.537	0.508	0.813	0.805	0.884	0.547	0.687	0.765	0.789	0.68
NCI-H1395	1.14	1.18	1.19	1.01	0.966	0.788	0.782	0.716	0.668	1.18	1.06	0.898	0.584	0.374	0.471	0.413	0.419
NCI-H1437	0.896	0.791	0.781	0.811	0.748	0.418	0.399	0.402	0.34	1.05	0.931	0.816	0.477	0.644	0.643	0.574	0.279
NCI-H1651	0.764	0.865	0.781	0.911	0.964	0.7	0.679	0.646	0.556	1.03	0.956	0.811	0.836	0.201	0.172	0.163	0.204
NCI-H1666	0.768	0.606	0.473	0.718	0.618	0.539	0.571	0.501	0.413	0.846	1.01	0.864	0.326	0.674	0.724	0.68	0.65

Cell Line	relative viability ([1]; first compound 0.08 µM)	relative viability ([1]; first compound 0.253 µM)	relative viability ([1]; first compound 0.8 µM)	relative viability ([1]; first compound 2.53 µM)	relative viability ([1]; first compound 8 µM)	relative viability ([2]; first compound 0.01 µM)	relative viability ([2]; first compound 0.03162 µM)	relative viability ([2]; first compound 0.3162 µM)	relative viability ([2]; first compound 1 µM)	relative viability ([3]; first compound 0.01 µM)	relative viability ([3]; first compound 0.03162 µM)	relative viability ([3]; first compound 0.3162 µM)	relative viability ([3]; first compound 1 µM)	relative viability ([4]; first compound 0.01 µM)	relative viability ([4]; first compound 0.03162 µM)	relative viability ([4]; first compound 0.3162 µM)	relative viability ([4]; first compound 1 µM)
NCI-H1734	1.13	1.03	1.05	0.911	1.09	0.296	0.261	0.25	0.102	0.645	0.655	0.613	0.434	0.535	0.585	0.537	0.263
NCI-H1755	1.06	1.04	1.01	1.05	1.05	0.489	0.618	0.578	0.547	0.856	0.95	1.03	0.871	0.946	0.957	0.949	0.854
NCI-H1793	0.769	1		0.651	0.59	0.32	0.323	0.33	0.312	0.574	0.632	0.907	0.774	0.849	0.774	0.786	0.546
NCI-H1915	1.06	1.01	1	0.883	1.02	0.482	0.461	0.456	0.347	1.06	1	1.04	0.732	0.25	0.273	0.292	0.208
NCI-H1944	0.8	0.753	0.765	0.753	0.565	0.25	0.24	0.249	0.213	0.86	0.787	0.799	0.74	0.383	0.424	0.412	0.337
NCI-H1975	1.08	0.883	0.833	0.987	0.861	0.609	0.7	0.626	0.133	0.63	0.658	0.381	0.152	0.816	0.67	0.641	0.15
NCI-H1993	0.82	0.71	0.801	0.723	0.589	0.547	0.584	0.544	0.506	0.728	0.677	0.676	0.614	1.04	0.833	0.973	0.769
NCI-H2009	0.898	0.889	0.871	0.884	0.836	0.751	0.72	0.703	0.515	1.14	1.12	1.15	0.668	0.663	0.697	0.61	0.707
NCI-H2023	0.825	0.773	0.899	0.95	0.818	0.362	0.379	0.295	0.135	0.648	0.711	0.498	0.3	0.46	0.485	0.386	0.128
NCI-H2085	0.915	0.783	0.749	0.818	0.842	0.768	0.853	0.787	0.819	0.899	0.926	0.941	0.656	0.768	0.806	0.744	0.724
NCI-H2087	1.16	0.981	1.02	1.03	1.02	0.255	0.269	0.282	0.0867	1.14	1.21	1.01	0.161	0.607	0.515	0.421	0.0663
NCI-H2126	0.808	0.723	0.723	0.777	0.759	0.946	0.865	0.504	0.32	0.766	0.798	0.749	0.695	0.902	0.935	0.932	0.874
NCI-H2170	0.267	0.272	0.271	0.292	0.286	0.672	0.751	0.762	0.651	0.828	0.796	0.794	0.81	0.585	0.59	0.608	0.562
NCI-H2228	0.966	1.29	0.986	1.21	1.06	0.253	0.273	0.227	0.179	0.972	0.821	0.584	0.415	0.54	0.602	0.569	0.208
NCI-H2347	1.05	0.921	0.839	0.882	0.824	0.635	0.512	0.425	0.442	1.2	0.952	1.08	0.771	0.619	0.506	0.561	0.41
NCI-H2405	1.04	1.07	0.979	1.02	1	0.819	0.797	0.725	0.463	0.934	0.773	0.716	0.331	0.89	0.783	0.906	0.606
NCI-H3122	0.99	0.982	1.04	0.947	1.01	0.535	0.41	0.175	0.136	0.827	0.699	0.813	0.263	0.664	0.651	0.627	0.579
PC-3 [JPC-3]	0.483	0.474	0.484	0.445	0.426	0.93	0.903	0.88	0.902	1.02	1.03	1.04	1.03	1.19	1.1	1.09	0.981
